Columns and labels:
[1] = target: T1, GST-tagged Tankyrase-2 (873-1166 aa) (Homo sapiens, UniProt Q9H2K2); assay: Tankyrase 2 autoparsylation assay (HTRF enzyme assay); type: biochemical
T1 construct: GST-tagged Tankyrase-2 (873-1166 aa)
Procedure: Biochemical Activity Testing of Tankyrase 1 and 2: Autoparsylation Assay
(§1) The autoparsylation assay is run in two steps: the enzymatic reaction in which GST-tagged Tankyrase-1, resp Tankyrase-2 transferred biotinylated ADP-ribose to itself from biotinylated NAD as co-substrate and the detection reaction where a time resolved FRET between cryptate labelled anti-GST bound to the GST tag of the enzyme and Xlent® labelled-streptavidin bound the biotin-parsylation residue is analysed. The autoparsylation activity was detectable directly via the increase in HTRF signal.
The autoparsylation assay is performed as 384-well HTRF® (Cisbio, Codolet, France) assay format in Greiner low volume nb 384-well microtiter plates and is used for high throughput screen. 250 nM GST-tagged Tankyrase-1 (1023-1327 aa), respectively about 250 nM GST-tagged Tankyrase-2 (873-1166 aa) and 5 μM bio-NAD (Biolog, Life science Inst., Bremen, Germany) as co-substrate are incubated in a total volume of 5 μl (50 mM HEPES, 4 mM Mg-chloride, 0.05% Pluronic F-68, 1.4 mM DTT, 0.5% DMSO, pH 7.7) in the absence or presence of the test compound (10 dilution concentrations) for 90 min at 30° C. The reaction is stopped by the addition of 1 μl 50 mM EDTA solution. 2 μl of the detection solution (1.6 μM SA-Xlent® (Cisbio, Codolet, France), 7.4 nM Anti-GST-K® (Eu-labelled anti-GST, Cisbio, Codolet, France) in 50 mM HEPES, 800 mM KF, 0.1% BSA, 20 mM EDTA, 0.1% CHAPS, pH 7.0) are added. After 1 h incubation at room temperature the HTRF is measured with an Envision multimode reader (Perkin Elmer LAS Germany GmbH) at excitation wavelength 340 nm (laser mode) and emission wavelengths 615 nm and 665 nm. The ratio of the emission signals is determined. The full value used is the inhibitor-free reaction. The pharmacological zero value used is XAV-939 (Tocris) in a final concentration of 5 μM. The inhibitory values (IC50) are determined using either the program Symyx Assay Explorer® or Condosseo® from GeneData.

His-tagged Parp-1 = target: T2, His-tagged Parp-1 (Homo sapiens, UniProt P09874); assay: PARP-1 autoparsylation assay (HTRF); type: biochemical; conditions: PARP-1 autoparsylation HTRF assay
T2 construct: purchased Enzo Life Sciences GmbH, Lörrach, Germany
T2 sequence (P09874 whole entry): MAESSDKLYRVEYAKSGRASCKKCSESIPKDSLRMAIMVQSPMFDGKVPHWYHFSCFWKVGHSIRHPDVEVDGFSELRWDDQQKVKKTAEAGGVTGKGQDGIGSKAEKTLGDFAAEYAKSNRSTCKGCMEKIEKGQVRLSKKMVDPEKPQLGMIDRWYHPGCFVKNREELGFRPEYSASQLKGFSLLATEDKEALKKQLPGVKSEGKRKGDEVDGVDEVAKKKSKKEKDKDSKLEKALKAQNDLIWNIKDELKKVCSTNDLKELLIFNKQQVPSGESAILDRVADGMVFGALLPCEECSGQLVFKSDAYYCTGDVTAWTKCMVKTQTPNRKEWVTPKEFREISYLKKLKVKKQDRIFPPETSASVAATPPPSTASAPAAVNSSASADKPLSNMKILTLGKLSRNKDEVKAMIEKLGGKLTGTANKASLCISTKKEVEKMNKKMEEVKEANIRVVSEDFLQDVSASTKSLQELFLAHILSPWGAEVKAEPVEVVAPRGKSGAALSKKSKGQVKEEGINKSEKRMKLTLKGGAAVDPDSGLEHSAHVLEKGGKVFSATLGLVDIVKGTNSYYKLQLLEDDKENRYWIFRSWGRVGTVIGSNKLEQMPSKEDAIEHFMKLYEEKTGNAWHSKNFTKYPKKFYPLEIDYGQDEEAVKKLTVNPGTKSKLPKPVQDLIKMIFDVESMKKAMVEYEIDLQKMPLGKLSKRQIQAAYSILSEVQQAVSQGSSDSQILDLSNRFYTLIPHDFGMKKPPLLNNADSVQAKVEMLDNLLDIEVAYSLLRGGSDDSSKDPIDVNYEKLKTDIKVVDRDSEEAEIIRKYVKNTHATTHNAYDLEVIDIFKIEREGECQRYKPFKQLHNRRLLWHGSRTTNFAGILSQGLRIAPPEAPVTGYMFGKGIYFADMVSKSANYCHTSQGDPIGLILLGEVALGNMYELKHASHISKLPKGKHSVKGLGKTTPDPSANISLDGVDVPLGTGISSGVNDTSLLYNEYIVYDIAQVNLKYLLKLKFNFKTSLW
Description: Description of the PARP1 Assay
Biochemical Activity Testing of PARP-1: Autoparsylation Assay
as §1, with “His-tagged Parp-1 transfers” for “GST-tagged Tankyrase-1, resp Tankyrase-2 transferred”, “ADP-ribose/ADP-ribose” for “ADP-ribose”, “NAD/NAD” for “NAD”, “anti-His antibody” for “anti-GST”, “His” for “GST”, “is” for “was”
The autoparsylation assay is performed as 384-well HTRF® (Cisbio, Codolet, France) assay format in Greiner low volume nb 384-well microtiter plates. 35 nM His-tagged Parp-1 (human, recombinant, Enzo Life Sciences GmbH, Lörrach, Germany) and a mixture of 125 nM bio-NAD (Biolog, Life science Inst., Bremen, Germany) and 800 nM NAD as co-substrate are incubated in a total volume of 6 μl (100 mM Tris/HCl, 4 mM Mg-chloride, 0.01% IGEPAL® CA630, 1 mM DTT, 0.5% DMSO, pH 8, 13 ng/μl activated DNA (BPS Bioscience, San Diego, US)) in the absence or presence of the test compound (10 dilution concentrations) for 150 min at 23° C. The reaction is stopped by the addition of 4 μl of the Stop/detection solution (70 nM SA-Xlent® (Cisbio, Codolet, France), 2.5 nM Anti-His-K® (Eu-labelled anti-His, Cisbio, Codolet, France) in 50 mM HEPES, 400 mM KF, 0.1% BSA, 20 mM EDTA, pH 7.0). After 1 h incubation at room temperature the HTRF is measured with an Envision multimode reader (Perkin Elmer LAS Germany GmbH) at excitation wavelength 340 nm (laser mode) and emission wavelengths 615 nm and 665 nm. The ratio of the emission signals is determined. The full value used is the inhibitor-free reaction. The pharmacological zero value used is Olaparib (LClabs, Woburn, US) in a final concentration of 1 μM. The inhibitory values (IC50) are determined using either the program Symyx Assay Explorer® or Condosseo® from GeneData.

T1 sequence (Q9H2K2 873-1166): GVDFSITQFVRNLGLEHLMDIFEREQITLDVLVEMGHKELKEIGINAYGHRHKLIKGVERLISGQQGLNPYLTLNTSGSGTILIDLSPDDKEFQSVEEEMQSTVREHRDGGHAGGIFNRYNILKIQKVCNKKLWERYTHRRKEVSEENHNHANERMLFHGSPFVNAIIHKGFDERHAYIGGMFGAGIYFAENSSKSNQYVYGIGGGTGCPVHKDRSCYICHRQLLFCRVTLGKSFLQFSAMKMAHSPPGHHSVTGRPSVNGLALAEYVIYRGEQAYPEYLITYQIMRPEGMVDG

SMILES: CCC(O)(CC)c1ccc(-c2nn3cccc3c(=O)[nH]2)cc1 [Compound A14, 2-[4-(1-ethyl-1-hydroxy-propyl)-phenyl]-3H-pyrrolo[2,1-f][1,2,4]triazin-4-one]
- IC50 [1]: < 0.3 µM
- IC50 (His-tagged Parp-1): 3 to 50 µM

SMILES: O=c1[nH]c(-c2ccc(C3(O)CCCC3)cc2)nn2cccc12 [Compound A21, 2-[4-(1-hydroxy-cyclopentyl)-phenyl]-3H-pyrrolo[2,1-f][1,2,4]-triazin-4-one]
- IC50 [1]: < 0.3 µM
- IC50 (His-tagged Parp-1): 3 to 50 µM

SMILES: Cc1cc2c(=O)[nH]c(-c3ccc(C(C)(C)O)cc3)nn2c1 [Compound A11, 2-[4-(1-hydroxy-1-methyl-ethyl)phenyl]-6-methyl-3H-pyrrolo[2,1-f][1,2,4]triazin-4-one]
- IC50 [1]: < 0.3 µM
- IC50 (His-tagged Parp-1): 0.3 to 3 µM

SMILES: CC(C)(O)c1ccc(-c2nn3cc(F)cc3c(=O)[nH]2)cc1 [Compound A12, 6-fluoro-2-[4-(1-hydroxy-1-methyl-ethyl)phenyl]-3H-pyrrolo[2,1-f][1,2,4]triazin-4-one]
- IC50 [1]: < 0.3 µM
- IC50 (His-tagged Parp-1): 0.3 to 3 µM

SMILES: Cn1cc(-c2ccc(-c3nn4cccc4c(=O)[nH]3)cc2)cn1 [Compound A7, 2-[4-(1-methyl-1H-pyrazol-4-yl)-phenyl]-3H-pyrrolo[2,1-f][1,2,4]triazin-4-one]
- IC50 [1]: 0.3 to 3 µM
- IC50 (His-tagged Parp-1): 3 to 50 µM

SMILES: CC(C)(O)c1ccc(-c2nn3cccc3c(=O)[nH]2)cc1 [Compound A5, 2-[4-(1-hydroxy-1-methyl-ethyl)-phenyl]-3H-pyrrolo[2,1-f][1,2,4]triazin-4-one]
- IC50 [1]: < 0.3 µM
- IC50 (His-tagged Parp-1): 3 to 50 µM

SMILES: Cc1cc2c(=O)[nH]c(-c3ccc(-c4cnn(C)c4)cc3)nn2c1 [Compound A13, 6-methyl-2-[4-(1-methylpyrazol-4-yl)phenyl]-3H-pyrrolo-[2,1-f][1,2,4]triazin-4-one]
- IC50 [1]: < 0.3 µM
- IC50 (His-tagged Parp-1): 3 to 50 µM

SMILES: CC(C)(O)c1ccc(-c2nn3cc(Cl)cc3c(=O)[nH]2)cc1 [Compound A18, 6-chloro-2-[4-(1-hydroxy-1-methyl-ethyl)-phenyl]-3H-pyrrolo[2,1-f][1,2,4]triazin-4-one]
- IC50 [1]: < 0.3 µM
- IC50 (His-tagged Parp-1): 3 to 50 µM

SMILES: CC(C)(OCCO)c1ccc(-c2nn3cccc3c(=O)[nH]2)cc1 [Compound A15, 2-{4-[1-(2-hydroxy-ethoxy)-1-methyl-ethyl]-phenyl}-3H-pyrrolo[2,1-f][1,2,4]triazin-4-one]
- IC50 [1]: < 0.3 µM
- IC50 (His-tagged Parp-1): 3 to 50 µM

Reference: US9174995B2, “Pyrrolotriazinone derivatives” (Merck Patent GmbH, priority 2012, dated 2015)
